{"source": "PubChem BioAssay AID248", "about": "(DTP/NCI, 2004)", "system": "L1210 leukemia ip in BDF1 mice, survival T/C", "test": "NCI In Vivo Anticancer Drug Screen. Data for tumor model L1210 Leukemia (intraperitoneal) in B6D2F1 (BDF1) mice", "settings": "endpoint: mean survival time, higher = longer survival", "how_it_was_run": "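Value reflects the ratio of survival in compound-treated mice to survival in vehicle-treated controls, with both groups carrying the same transplanted tumor.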", "key": {"[1]": {"settings": "dose: 100.0 mg/kg/injection, schedule: Q01DX001 (ip), vehicle: carboxymethylcellulose (CMC)"}, "[2]": {"settings": "dose: 200.0 mg/kg/injection, schedule: Q01DX001 (ip), vehicle: carboxymethylcellulose (CMC)"}, "[3]": {"settings": "dose: 400.0 mg/kg/injection, schedule: Q01DX001 (ip), vehicle: carboxymethylcellulose (CMC)"}}, "note": "Inconclusive results and toxic doses are left out."}
{"smiles": "C/C(=N\\N=C(N)N)c1ccc(N2CCN(c3ccc(/C(C)=N/N=C(N)N)cc3)CC2)cc1", "values": [{"measurement": "T/C", "setting": "[1]", "result": "94 % of control"}, {"measurement": "T/C", "setting": "[2]", "result": "97 % of control"}, {"measurement": "T/C", "setting": "[3]", "result": "100 % of control"}]}
{"smiles": "CC1(C[N+](=O)[O-])CCCC(=O)C1", "note": "(centres undefined)", "values": [{"measurement": "T/C", "setting": "dose: 75.0 mg/kg/injection, schedule: Q01DX001 (ip), vehicle: saline", "result": "98 % of control"}]}
{"smiles": "C/C=C/c1ccccc1C(C)=O", "values": [{"measurement": "T/C", "setting": "dose: 100.0 mg/kg/injection, schedule: Q04DX003 (sc), vehicle: olive oil, sesame oil, peanut oil", "result": "105 % of control"}, {"measurement": "T/C", "setting": "dose: 200.0 mg/kg/injection, schedule: Q04DX003 (sc), vehicle: olive oil, sesame oil, peanut oil", "result": "105 % of control"}, {"measurement": "T/C", "setting": "dose: 400.0 mg/kg/injection, schedule: Q04DX003 (sc), vehicle: olive oil, sesame oil, peanut oil", "result": "100 % of control"}]}
{"smiles": "O=C1C(Cl)=C(Nc2ccc3cn[nH]c3c2)C(=O)c2ccccc21", "values": [{"measurement": "T/C", "setting": "dose: 50.0 mg/kg/injection, schedule: Q01DX001 (ip), vehicle: carboxymethylcellulose (CMC)", "result": "102 % of control"}, {"measurement": "T/C", "setting": "[1]", "result": "100 % of control"}, {"measurement": "T/C", "setting": "[2]", "result": "102 % of control"}]}
{"smiles": "CC(=O)NCCCCCCCCCCNC(C)=O", "values": [{"measurement": "T/C", "setting": "dose: 10.0 mg/kg/injection, schedule: Q01DX Z (ip), vehicle: saline", "result": "91 % of control"}, {"measurement": "T/C", "setting": "dose: 30.0 mg/kg/injection, schedule: Q01DX Z (ip), vehicle: saline", "result": "95 % of control"}, {"measurement": "T/C", "setting": "dose: 100.0 mg/kg/injection, schedule: Q01DX Z (ip), vehicle: saline", "result": "95 % of control"}, {"measurement": "T/C", "setting": "dose: 300.0 mg/kg/injection, schedule: Q01DX Z (ip), vehicle: saline", "result": "98 % of control"}]}
{"smiles": "N#CCCN(NC(=O)OCc1ccccc1)C(=O)OCc1ccccc1", "values": [{"measurement": "T/C", "setting": "[1]", "result": "95 % of control"}, {"measurement": "T/C", "setting": "[2]", "result": "89 % of control"}, {"measurement": "T/C", "setting": "[3]", "result": "95 % of control"}]}
{"smiles": "CCOC(=O)c1ccc(NC(=O)Nc2cccc(F)c2)cc1", "values": [{"measurement": "T/C", "setting": "dose: 100.0 mg/kg/injection, schedule: Q01DX009 (ip), vehicle: Klucel (hydroxypropylcellulose) (HPC)", "result": "101 % of control"}, {"measurement": "T/C", "setting": "dose: 200.0 mg/kg/injection, schedule: Q01DX009 (ip), vehicle: Klucel (hydroxypropylcellulose) (HPC)", "result": "100 % of control"}]}
